Target: T1, KDM5B enzyme (Homo sapiens, UniProt Q9UGL1)
T1 construct: Reaction Biology Corp (named for the assay, not expressly for the enzyme)
Test: KDM5B HTRF (TR-FRET) demethylase inhibition assay
Type: biochemical
Settings: 1.2 nM KDM5B, 30 nM Biotin-H3K4Me3 1-21 substrate, 10 point dose-response
Experimental: Ten point dose-response curves for the compounds of Examples 1-135 were determined using a homogeneous time resolved fluorescence (HTRF) assay (Reaction Biology Corp, Malvern, Pa.). This assay combines fluorescence resonance energy transfer (FRET) with time resolve (TR) measurements (TR-FRET). The KDM5B α-ketoglutarate-dependent demethylase activity is calculated by measuring demethylation of a biotin labeled histone tri-methylated H3K4 substrate using an europium-cryptate (Eu)-labeled antibody donor specific for dimethylated histone H3K4 and a Streptavidin-XL665 acceptor that binds to the biotin group of substrate, and detecting FRET by exciting the reaction mixture at 320 nm and reading dual emissions at 615 nm and 665 nm.
Briefly, compounds disclosed herein were solubilized in DMSO and a series of 10, three-fold serial dilutions were made for each compound in 100% DMSO. The initial starting concentration for the serial dilutions of each compound was 10 μM or 100 μM. Control samples lacking compound, KDM5B enzyme or various reaction components also were prepared and processed in parallel with compound test samples.
An aliquot of each serial dilution of test compound was added to a 384 well plate (Corning Cat #3572) containing 1.2 nM KDM5B enzyme suspended in 50 mM Hepes, pH7.5, 50 mM NaCl, 0.01% Tween 20, 0.1% BSA, and 1% DMSO (final concentrations) in a 10 microliter reaction volume using a LABCYTE ECHO liquid handler. The samples were mixed, subjected to centrifugation and the plate was pre-incubated at room temperature for 15 minutes (min), to which 30 nM Biotin-H3K4Me3 1-21 substrate (Anaspec, Freemont Calif., Cat #64192), 20 μM Fe(II) and 20 μM α-ketoglutarate co-factors, and 100 μM Ascorbate were added to initiate the enzymatic reaction. The reaction mixture was incubated at room temperature for 45 minutes. A 10 μl aliquot of a detection mixture of Eu-labeled anti-histone H3K4Me2 antibody (CisBIO, Bedford Mass., Cat #610AXLB) and Streptavidin-XL665 (CisBIO, Bedford Mass., Cat #610 SAXLB) in 200 mM potassium fluoride and 10 mM EDTA was added and kinetic measurements were read at 5 minute intervals for a period of 30 minutes using an Envision Multiplate Reader (PerkinElmer Model 2102; excitation at 320 nm and emission reads at 615 nm and 665 nm). The IC50 value for each compound was determined from the 665/615 ratio obtained for each 10 point dose-response curve using GraphPad Prism 4 software with a sigmodial dose response.

T1 sequence (Q9UGL1 whole entry): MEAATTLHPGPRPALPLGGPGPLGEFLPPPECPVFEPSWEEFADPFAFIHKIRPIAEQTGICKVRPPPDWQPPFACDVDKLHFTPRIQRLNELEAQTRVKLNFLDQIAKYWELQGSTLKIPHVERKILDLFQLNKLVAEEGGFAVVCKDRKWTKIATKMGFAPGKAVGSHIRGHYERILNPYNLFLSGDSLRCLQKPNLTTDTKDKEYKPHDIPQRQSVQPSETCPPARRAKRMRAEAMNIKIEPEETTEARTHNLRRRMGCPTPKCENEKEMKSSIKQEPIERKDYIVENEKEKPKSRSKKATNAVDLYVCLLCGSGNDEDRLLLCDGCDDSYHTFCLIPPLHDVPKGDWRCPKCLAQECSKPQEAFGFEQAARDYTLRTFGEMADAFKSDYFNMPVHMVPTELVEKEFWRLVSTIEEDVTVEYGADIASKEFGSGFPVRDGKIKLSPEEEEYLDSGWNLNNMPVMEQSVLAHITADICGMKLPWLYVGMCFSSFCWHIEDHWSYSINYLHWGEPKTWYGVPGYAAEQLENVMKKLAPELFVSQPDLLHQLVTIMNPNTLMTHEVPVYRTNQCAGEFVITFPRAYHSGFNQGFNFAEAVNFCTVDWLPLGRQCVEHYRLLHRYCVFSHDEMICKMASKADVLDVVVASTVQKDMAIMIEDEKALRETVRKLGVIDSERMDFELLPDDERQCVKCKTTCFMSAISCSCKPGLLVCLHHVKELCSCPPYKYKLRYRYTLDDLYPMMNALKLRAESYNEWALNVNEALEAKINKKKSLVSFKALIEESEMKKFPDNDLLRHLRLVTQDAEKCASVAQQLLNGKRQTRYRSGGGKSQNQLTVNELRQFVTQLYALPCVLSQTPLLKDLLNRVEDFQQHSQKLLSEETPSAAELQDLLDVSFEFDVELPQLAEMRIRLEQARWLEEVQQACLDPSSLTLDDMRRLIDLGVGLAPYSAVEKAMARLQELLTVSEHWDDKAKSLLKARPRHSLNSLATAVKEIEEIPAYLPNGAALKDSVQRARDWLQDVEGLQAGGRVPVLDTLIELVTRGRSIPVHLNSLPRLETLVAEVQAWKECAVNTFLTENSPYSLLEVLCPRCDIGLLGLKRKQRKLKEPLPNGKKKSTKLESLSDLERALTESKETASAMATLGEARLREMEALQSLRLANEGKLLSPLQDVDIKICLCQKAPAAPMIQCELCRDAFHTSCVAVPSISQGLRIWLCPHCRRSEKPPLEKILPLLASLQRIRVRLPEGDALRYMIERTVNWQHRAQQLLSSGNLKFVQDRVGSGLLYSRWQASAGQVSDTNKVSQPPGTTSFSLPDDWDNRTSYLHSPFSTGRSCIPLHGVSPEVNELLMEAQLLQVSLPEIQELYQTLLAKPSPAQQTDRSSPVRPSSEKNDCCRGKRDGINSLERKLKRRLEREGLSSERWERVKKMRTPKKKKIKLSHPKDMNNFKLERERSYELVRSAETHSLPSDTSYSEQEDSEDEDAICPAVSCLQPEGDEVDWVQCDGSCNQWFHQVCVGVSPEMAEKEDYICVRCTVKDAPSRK

First: O=C(O)c1c(NCc2cc(C(F)(F)F)ccc2F)ccc2nccn12 [Example 43]
Second: O=C(O)c1c(NCc2cc(F)ccc2F)ccc2nccn12 [Example 82]
The IC50 of the first is higher: greater than 1 µM for the first, 0.5 to 1 µM for the second. The second is the more potent here.

First: O=C(O)c1c(NCc2ccc(N3CCOCC3)cc2)ccc2nccn12 [Example 64]
Second: O=C(O)c1c(NCc2ccc(F)cc2)ccc2nccn12 [Example 23]
The IC50 of the first is higher: greater than 1 µM for the first, no more than 0.5 µM for the second. The second is the more potent here.

Compared with `O=C(O)c1c(NCc2cccc3ccccc23)ccc2nccn12` [Example 31], `O=C(O)c1c(NCc2ccccc2-c2ccccc2)ccc2nccn12` [Example 44] is lower in IC50: greater than 1 µM for the first, 0.5 to 1 µM for the second. The second is the more potent here.

`O=C(O)c1c(NCc2ccc3c(c2)CCO3)ccc2nccn12` [Example 98] and `Cc1cc(CNc2ccc3nccn3c2C(=O)O)ccc1F` [Example 63] cannot be ordered by IC50: greater than 1 µM for the first, greater than 1 µM for the second.

`O=C(O)c1c(NCc2ccccc2F)ccc2nccn12` [Example 85] and `O=C(O)c1c(NCc2cccc(F)c2F)ccc2nccn12` [Example 79] cannot be ordered by IC50: greater than 1 µM for the first, greater than 1 µM for the second.

Going from `O=C(O)c1c(NCc2cc(F)cc(C(F)(F)F)c2)ccc2nccn12` [Example 93] to `O=C(O)c1c(NCc2ccc(F)cc2C(F)(F)F)ccc2nccn12` [Example 60], the IC50 falls from greater than 1 µM to no more than 0.5 µM. The second is the more potent here.

First: O=C(O)c1c(NCc2ccc(F)cc2F)ccc2nccn12 [Example 81]
Second: O=C(O)c1c(NCc2ccc(Cl)cc2F)ccc2nccn12 [Example 56]
The IC50 of the first is lower: 0.5 to 1 µM for the first, greater than 1 µM for the second. The first is the more potent here.

Compared with `O=C(O)c1c(NCc2c(F)cc(F)cc2F)ccc2nccn12` [Example 71], `Cc1ccc(F)cc1CNc1ccc2nccn2c1C(=O)O` [Example 68] is higher in IC50: 0.5 to 1 µM for the first, greater than 1 µM for the second. The first is the more potent here.

Compared with `Cc1ccc(C(F)(F)F)c(CNc2ccc3nccn3c2C(=O)O)c1` [Example 69], `O=C(O)c1c(NCc2cc(F)ccc2C(F)(F)F)ccc2nccn12` [Example 67] is lower in IC50: greater than 1 µM for the first, no more than 0.5 µM for the second.

`CN(Cc1ccc(F)cc1)Cc1ccc(Oc2cc(C(=O)O)n3ccnc3c2)cc1` [Example 134] and `COc1ccc(CNc2ccc3nccn3c2C(=O)O)cc1` [Example 24] cannot be ordered by IC50: greater than 1 µM for the first, greater than 1 µM for the second.

`COc1cc(CNc2ccc3nccn3c2C(=O)O)ccc1F` [Example 97] and `COc1cc(Cl)ccc1CNc1ccc2nccn2c1C(=O)O` [Example 8] cannot be ordered by IC50: 0.5 to 1 µM for the first, no more than 0.5 µM for the second.

`O=C(O)c1c(NCc2ccc(OC(F)(F)F)cc2)ccc2nccn12` [Example 95] and `O=C(O)c1c(NCc2ccc(OC(F)F)cc2)ccc2nccn12` [Example 22] cannot be ordered by IC50: greater than 1 µM for the first, greater than 1 µM for the second.

Compared with `COc1cc(CN2CCC(NCCc3ccccc3)CC2)ccc1CNc1ccc2nccn2c1C(=O)O` [Example 130], `COc1ccccc1CNc1ccc2nccn2c1C(=O)O` [Example 17] is higher in IC50: 0.5 to 1 µM for the first, greater than 1 µM for the second.

`Cn1c(=O)n(C)c2cc(CNc3ccc4nccn4c3C(=O)O)ccc21` [Example 76] and `CC(=O)N(C)c1cccc(CNc2ccc3nccn3c2C(=O)O)c1` [Example 100] fall in the same range of IC50: 0.5 to 1 µM for the first, 0.5 to 1 µM for the second.

Compared with `O=C(O)c1c(NCc2ccc3sccc3c2)ccc2nccn12` [Example 30], `O=C(O)c1c(NCc2cccc(Br)c2)ccc2nccn12` [Example 4] is lower in IC50: greater than 1 µM for the first, no more than 0.5 µM for the second.

Compared with `O=C(O)c1cc(OCCN2CCC(c3cc(Cl)cc(Cl)c3)CC2)cc2nccn12` [Example 132], `O=C(O)c1cc(CCCN2CCC(c3cc(Cl)cc(Cl)c3)CC2)cc2nccn12` [Example 135] is lower in IC50: greater than 1 µM for the first, no more than 0.5 µM for the second. The second is the more potent here.

`CC(O)c1ccn2c(C(=O)O)cnc2c1` (centres unmarked) [Example 103] and `O=C(O)c1cnc2cc(C(O)c3ccccc3)ccn12` (centres unmarked) [Example 102] cannot be ordered by IC50: greater than 1 µM for the first, greater than 1 µM for the second.

`CS(=O)(=O)c1ccccc1CNc1ccc2nccn2c1C(=O)O` [Example 84] and `CS(=O)(=O)c1cccc(CNc2ccc3nccn3c2C(=O)O)c1` [Example 88] cannot be ordered by IC50: no more than 0.5 µM for the first, no more than 0.5 µM for the second.

`O=C(O)c1c(NCc2ccccc2OC(F)(F)F)ccc2nccn12` [Example 37] and `O=C(O)c1c(NCc2ccccc2OC(F)F)ccc2nccn12` [Example 12] fall in the same range of IC50: 0.5 to 1 µM for the first, 0.5 to 1 µM for the second.

`COc1ccc(CNc2ccc3nccn3c2C(=O)O)c(OC)c1` [Example 1] and `Cc1cc(F)ccc1CNc1ccc2nccn2c1C(=O)O` [Example 61] cannot be ordered by IC50: no more than 0.5 µM for the first, 0.5 to 1 µM for the second.

`CN(C)c1ccc(CNc2ccc3nccn3c2C(=O)O)cc1` [Example 96] and `N#Cc1cccc(CNc2ccc3nccn3c2C(=O)O)c1` [Example 128] cannot be ordered by IC50: greater than 1 µM for the first, greater than 1 µM for the second.

`O=C(O)c1c(NCc2ccc(Cl)cc2Cl)ccc2nccn12` [Example 72] and `Cc1ccc(Cl)cc1CNc1ccc2nccn2c1C(=O)O` [Example 26] fall in the same range of IC50: 0.5 to 1 µM for the first, 0.5 to 1 µM for the second.

First: O=C(O)c1c(NCc2cccc3c2CNCC3)ccc2nccn12 [Example 121]
Second: COc1c(F)cccc1CNc1ccc2nccn2c1C(=O)O [Example 92]
The IC50 of the first is higher: greater than 1 µM for the first, 0.5 to 1 µM for the second. The second is the more potent here.

Going from `O=C(O)c1cc(-c2cn(Cc3ccc(Cl)cc3)cn2)cc2nccn12` [Example 113] to `O=C(O)c1c(NCc2cc(Cl)cc(Cl)c2)ccc2nccn12` [Example 18], the IC50 rises from no more than 0.5 µM to greater than 1 µM. The first is the more potent here.

`COc1cc(Cl)ccc1CNc1ccc2ncc(C(=O)O)n2c1` [Example 118] and `O=C(O)c1cnc2cc(Oc3ccccc3)ccn12` [Example 104] cannot be ordered by IC50: greater than 1 µM for the first, greater than 1 µM for the second.

Reference: patent US20190256509A1, “HISTONE DEMETHYLASE INHIBITORS” (CHRYSALIS, INC., priority 2016, published 2019)
